Measured values published in ChEMBL document CHEMBL1156829 (Proc Natl Acad Sci U S A, 2008).

How the values were obtained:
Plasmodium falciparum [1] = experiment: NOVARTIS: Inhibition of Plasmodium falciparum 3D7 (drug-susceptible) proliferation in erythrocyte-based infection assay; format: functional, organism-based; conditions: Plasmodium falciparum, 3D7
Plasmodium falciparum [2] = experiment: NOVARTIS: Inhibition of Plasmodium falciparum W2 (drug-resistant) proliferation in erythrocyte-based infection assay; format: functional, organism-based; conditions: Plasmodium falciparum, W2; read-out: EC50
[3] = NOVARTIS: Cytotoxicity against human hepatocellular carcinoma cell line (Huh7); format: toxicity, cell-based, Huh-7; conditions: Huh7 cells (hepatocellular carcinoma cell line)

Row | Structure (SMILES) | EC50 (Plasmodium falciparum [1]) [nM] | EC50 (Plasmodium falciparum [2]) [nM] | CC50 [3] [nM]
1 | O=C(NCCc1ccccc1)C(=O)NN=Cc1ccccc1 | > 1250 | > 82 | > 10000
2 | COc1cc(C(=O)NCCc2cc3ccccc3[nH]2)ccc1OC1CCN(CC(c2ccccc2)c2ccccc2)CC1 | 803 | 94.4 | > 10900
3 | Cc1ccc2[nH]c3c(NCCCN(C)C)ncnc3c2c1 | 77.7 | 355 | 42000
4 | OC(COc1ccc(OCC(O)CN2CCN(CCOc3ccccc3)CC2)cc1)CN1CCN(CCOc2ccccc2)CC1 (stereo unspecified) | > 11000 | 853 | > 100000
5 | Cc1ccc2[nH]c3c(NCCN(C)C)ncnc3c2c1 | 168 | 254 | 29600
6 | COc1ccc(NC(=O)CCCCCn2c(SCC(=O)NCCc3ccc(OC)c(OC)c3)nc3ccsc3c2=O)cc1 | > 5310 | 837 | > 100000
7 | CCN(CC)CCNc1nc(C=Cc2ccc(Cl)cc2)nc2cc3ccccc3cc12 | 128 | 193 | 22500
8 | COc1cc(N)c(Cl)cc1C(=O)NCC1CCN(c2nc(C)cc(C)n2)CC1 | 345 | 531 | 64900
9 | Cc1cc(Cl)ccc1OC(C)C(=O)N1CCc2ccccc21 (stereo unspecified) | 632 | 812 | > 100000
10 | CCN(CC)S(=O)(=O)c1ccc2[nH]cc(C(=O)NCCCN3CCN(c4ccc(OC)cc4)CC3)c(=O)c2c1 | 2340 | 420 | 51600
11 | O=C(CSc1ccc2nnc(-c3cccc(F)c3)n2n1)Nc1ccc2c(c1)OCO2 | 2110 | 819 | > 100000
12 | COC(=O)c1ccc2c(=O)n(Cc3ccco3)c(SCC(=O)n3nc(N)cc3C)nc2c1 | 337 | 819 | > 100000
13 | Fc1ccc(Nc2nc(NCc3ccco3)c3ccccc3n2)cc1 | 191 | 101 | 12400
14 | COc1cc([N+](=O)[O-])ccc1NC(=O)CN1CCN(C(=O)c2ccco2)CC1 | 1600 | 832 | > 100000
15 | Cc1cc(N2CCN(Cc3ccccc3)CC2)n2c(nc3ccccc32)c1C#N | 323 | 832 | > 100000
16 | Cc1cc(C)nc(Nc2nc(C)c3cc(C)c(C)cc3n2)n1 | 1320 | 829 | > 100000
17 | O=C(Cc1cccs1)N1CCC(n2c(Cc3ccc(F)cc3)nc3cccnc32)CC1 | > 12500 | 827 | > 100000
18 | CCOC(=O)c1c(N)n(-c2ccc(CC)cc2)c2nc3ccccc3nc12 | 797 | 823 | > 100000
19 | CCOC(=O)c1cnc2ccc(C)cc2c1NCCCN1CCOCC1 | 900 | 827 | > 100000
20 | Cc1nc(C(C)N(C)Cc2c(C(=O)N3CCCCCCC3)nc3sccn23)c(C)s1 (stereo unspecified) | > 7030 | 825 | > 100000
21 | CC(C)(C)CC(C)(C)Nc1c(-c2ccccc2OC(=O)c2cccc(Br)c2)nc2ccccn12 | 6620 | 823 | > 100000
22 | COc1ccccc1Nc1nc2cc([N+](=O)[O-])c([N+](=O)[O-])cc2nc1Nc1cccc(Cl)c1 | > 1250 | 82.2 | > 10000
23 | COc1cc(NC(=O)Cn2c3ccccc3c(=O)c3ccccc32)cc(OC)c1OC | 2730 | 816 | > 100000

Row | Structure (SMILES) | EC50 (Plasmodium falciparum [1]) [nM] | EC50 (Plasmodium falciparum [2]) [nM] | CC50 [3] [nM]
24 | CCOC(=O)C1=C(C)NC(=Cc2cc(C)n(-c3cccc(Br)c3)c2C)C1=O | 2880 | 805 | > 100000
25 | CCCCN(CC)CCNC(=O)c1cc2c(-c3ccc(Cl)cc3)nn(C)c2s1 | 89.8 | 320 | 39800
26 | COc1cc(/C=C\C(=O)Nc2c3c(nn2-c2ccc(F)cc2)CSC3)cc(OC)c1OC | 614 | 84.4 | > 10000
27 | CC(=O)Nc1ccc(N2C(=O)CSC2c2ccc(Br)cc2)cc1 (stereo unspecified) | 2330 | 865 | > 100000
28 | COc1ccc2ccc(OC)c(C3C(C#N)=C(N)OC4=C3C(=O)CC(C)(C)C4)c2c1 (stereo unspecified) | 1450 | 864 | > 100000
29 | COc1cc2nc(NCc3ccccc3)n3nc(-c4cccnc4)nc3c2cc1OC | > 12500 | 810 | > 100000
30 | COC(=O)[C@@H]1C[C@H](NC(=O)c2ccc(OC)cc2OC)CN1Cc1cccc2ccccc12 | > 1250 | > 80.9 | > 10000
31 | CC(C)(C)Cc1ccc(OCCCC(=O)Nc2ccc(Cl)c(N)c2)c(CC(C)(C)C)c1 | 1730 | 848 | > 100000
32 | C=CCSc1nc2sc3c(c2c(=O)n1-c1ccccc1)CCN(CCC)C3 | 634 | 847 | > 100000
33 | CC(C)(C)c1ccc(Cn2nnc3c(O)nc(C4CCN(C(=O)c5ccccc5)CC4)nc32)cc1 | 242 | 852 | > 100000
34 | CCN1CCN(c2cc(C)c3cc(NC(=O)c4ccc(F)c([N+](=O)[O-])c4)ccc3n2)CC1 | 1160 | 365 | 42900
35 | Cc1cccc(-n2nc(C(C)(C)C)cc2NC(=O)CN(C(=O)/C=C/c2ccccc2)C(C)C)c1C | > 1750 | 85.5 | > 10000
36 | CC1=C(C(=O)OC(C)C)C(c2cccc([N+](=O)[O-])c2)C2=C(CCCC2=O)N1 (stereo unspecified) | > 11100 | 854 | > 100000
37 | Cc1cc(C)c(S(=O)(=O)N(C)CCCNc2ccnc3cc(Cl)ccc23)c(C)c1 | 167 | 229 | 26800
38 | CCN(CC)CCN1C(=O)c2ccccc2NC1c1ccc(Cl)cc1 (stereo unspecified) | 370 | 455 | 53300
39 | CC(=O)Nc1ccc2c(c1)C(=O)N(C(CC(C)(C)C)C(=O)NC1CCCCC1)[C@@H](CCC(=O)O)C(=O)N2 (stereo partly specified) | 868 | 51.6 | 6180
40 | COc1ccc(-n2nc3c(c2NC(=O)/C=C\c2cc(OC)c(OC)c(OC)c2)CSC3)cc1 | > 752 | 85.7 | > 10000
41 | C1CCC(CN2CCc3nc(N4CCCCC4)sc3C2)CC1 | 254 | 83.2 | > 10000
42 | CC1=C(C(=O)Nc2ccc(C)cc2C)C(c2cc(Br)ccc2F)n2ncc(C(=O)Nc3ccc(C)cc3)c2N1 (stereo unspecified) | 2550 | 857 | > 100000
43 | Cc1cc(C)n(-c2ccc(NC(=O)C3CCN(Cc4cnc(C)s4)CC3)cc2)n1 | 811 | 840 | > 100000
44 | CC(=O)N(C1=C(N2CCCC2)C(=O)c2ccccc2C1=O)c1ccc(F)c(F)c1 | 407 | 174 | 20200
45 | Cc1nonc1C(=O)NN=Cc1ccc([N+](=O)[O-])o1 | 1730 | 420 | 49300
46 | CC(C)(C)CC(=O)NCCCCNc1ccnc2cc(Cl)ccc12 | 20.7 | 102 | > 12200

Row | Structure (SMILES) | EC50 (Plasmodium falciparum [1]) [nM] | EC50 (Plasmodium falciparum [2]) [nM] | CC50 [3] [nM]
47 | COc1ccc(O)c(C=NNc2nc3ccccc3[nH]2)c1 | 576 | 355 | 43900
48 | COc1cccc(CCNC(=O)c2ccc(OC3CCN(CC(c4ccccc4)c4ccccc4)CC3)c(OC)c2)c1 | 1070 | 84.5 | > 10000
49 | COc1ccc2[nH]c(=O)c(CN(C(=S)Nc3ccccc3OC)C3CCCC3)cc2c1 | 995 | 824 | > 100000
50 | CCOC(=O)C1=C(C)N=c2sc(=Cc3cc(Br)ccc3O)c(=O)n2C1c1ccc(OC)c(OC)c1 (stereo unspecified) | 2100 | 814 | > 100000
51 | COc1ccc(C(=O)C[n+]2cc(-c3ccc(OC)cc3)n3c2CCC3)cc1 | 892 | 822 | > 100000
52 | COc1ccccc1Cn1c(SCC(=O)Nc2cccc(C(F)(F)F)c2)nc2ccc(Br)cc2c1=O | 735 | 831 | > 100000
53 | Cc1ccc(C)c(N2CCN(CCCNC(=O)c3ccc(CSc4nc5cnccc5[nH]4)cc3)CC2)c1 | 644 | 190 | 23000
54 | O=C1NN(c2ccc(Br)cc2)C(=O)C1=Cc1c(O)ccc2ccccc12 | 4880 | 818 | > 100000
55 | COc1ccc(C=NN=C2NC(=O)C(CC(=O)Nc3ccccc3)S2)cc1OC (stereo unspecified) | 482 | 857 | > 100000
56 | Cn1cnc(S(=O)(=O)Nc2ccccc2C(=O)NCC2CC2)c1 | > 1470 | 82.1 | > 10000
57 | COc1cccc(Cn2c3cc(C)sc3c3cnn(C)c(=O)c32)c1 | 497 | 583 | 68600
58 | CCc1nnc2sc(-c3ccc(NC(=O)c4ccc(Br)o4)cc3)nn12 | 5050 | 833 | > 100000
59 | COc1ccc(CNCc2cc3c(-c4ccc(C)cc4)nn(-c4ccccc4)c3[nH]c2=O)cc1 | 133 | 842 | > 100000
60 | COc1ccc(C2N(Cc3ccccc3)c3ccccc3N2Cc2ccccc2)cc1 | 561 | 431 | 53000
61 | Cc1cccn2c(=O)c3cc(C(=O)NCc4ccco4)c(=N)n(CCc4ccccc4)c3nc12 | 388 | 865 | > 100000
62 | CO/C(=C\C(N)=O)C(C)C(/C=C/c1csc(-c2csc(C(C)/C=C/C=C/C(C)C)n2)n1)OC (stereo unspecified) | 1240 | 84.6 | > 10000
63 | O=C(C1CC1)N1CCc2cc(Br)cc(S(=O)(=O)N3CCCCCC3)c21 | 1430 | 834 | > 100000
64 | C=CCc1c(C)nc2ccccc2c1O | 707 | 844 | > 100000
65 | CCn1c(SCc2ccc([N+](=O)[O-])cc2)nc2sc3c(c2c1=O)CCN(C)C3 | 470 | 808 | > 100000
66 | CC[n+]1c(/C=C/c2ccc(OC)cc2)ccc2ccccc21 | 110 | 85.8 | > 10000
67 | Cc1ccc(C=NNc2ncnc3nc[nH]c23)cc1 | 697 | 804 | > 100000
